The assay has as its target T1, individually expressed C half of ABCR (Homo sapiens, UniProt P78363).
T1 construct: The cDNAs coding for the N-half (amino acids 1-1325) and C-half (amino acids 1326-2273) of ABCR; made in house; host or cells: COS-1 cells
T1 sequence (P78363 1326-2273): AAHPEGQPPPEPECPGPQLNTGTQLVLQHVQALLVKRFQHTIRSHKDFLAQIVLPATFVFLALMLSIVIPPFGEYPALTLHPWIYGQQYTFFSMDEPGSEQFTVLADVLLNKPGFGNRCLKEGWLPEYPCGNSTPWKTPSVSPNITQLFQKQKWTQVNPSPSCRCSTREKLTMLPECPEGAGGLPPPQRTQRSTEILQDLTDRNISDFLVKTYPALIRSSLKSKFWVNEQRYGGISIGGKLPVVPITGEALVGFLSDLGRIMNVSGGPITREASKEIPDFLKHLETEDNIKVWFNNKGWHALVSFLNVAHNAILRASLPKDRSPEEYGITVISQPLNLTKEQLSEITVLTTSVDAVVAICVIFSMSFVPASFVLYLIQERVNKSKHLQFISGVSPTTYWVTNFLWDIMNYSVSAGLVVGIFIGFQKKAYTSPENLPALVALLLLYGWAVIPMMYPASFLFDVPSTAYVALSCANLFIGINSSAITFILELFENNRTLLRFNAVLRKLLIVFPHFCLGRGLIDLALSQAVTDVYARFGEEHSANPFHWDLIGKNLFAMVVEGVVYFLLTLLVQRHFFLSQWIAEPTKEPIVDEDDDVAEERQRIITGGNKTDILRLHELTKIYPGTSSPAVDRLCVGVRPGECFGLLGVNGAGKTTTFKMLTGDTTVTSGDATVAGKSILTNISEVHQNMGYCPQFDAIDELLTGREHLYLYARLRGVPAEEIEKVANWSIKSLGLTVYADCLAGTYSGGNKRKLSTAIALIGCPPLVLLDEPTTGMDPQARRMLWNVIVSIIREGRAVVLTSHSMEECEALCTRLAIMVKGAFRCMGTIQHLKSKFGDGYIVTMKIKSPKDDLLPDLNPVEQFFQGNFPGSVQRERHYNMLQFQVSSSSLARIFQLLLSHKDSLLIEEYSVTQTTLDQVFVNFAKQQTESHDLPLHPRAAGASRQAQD
The assay is described as follows: Retinal-stimulated ATPase activity of purified protein reconstituted in lipid vesicles. The settings on record: individually expressed in COS-1 cells, 50 μM [α32P]ATP. It is filed as biochemical. The protocol: Membranes (from two 10 cm dishes) were solubilized in 0.5 ml of 1% Triton-X100 in Buffer A (140 mM NaCl, 20 mM Tris-HCl, pH 7.4) for 20 min on ice. For ATPase assays, the membrane preparation step was omitted and the cell suspension was solubilized directly in Buffer B (10 mg/ml soybean phospholipids, 10% glycerol, 1 mM dithiothreitol, 100 mM NaCl, 3 mM MgCl2, 50 mM NaHEPES, pH 7.4) containing 18 mM CHAPS. The supernatant after a 10 min centrifugation at 40,000 rpm (TLA100.4 rotor) was mixed with 50 μl Rim3F4 Sepharose 2B for 1 h at 4° C. The beads were washed 6 times in Buffer A containing 0.2% Triton X-100 or Buffer B containing 10 mM CHAPS and eluted with 4% SDS (for electrophoresis) or 0.2 mg/ml Rim3F4 peptide (for reconstitution and determination of ATPase activity). Purified protein (24 μl) was incubated with 6 μl of 50 mg/ml lipid (1:1 mixture of dioleoylphosphatidylethanolamine and brain polar lipid, by weight) and 3 μl n-octylglucoside for 30 min on ice. The mixture was diluted rapidly with 200 μl of Buffer C (1 mM dithiothreitol, 140 mM NaCl, 25 mM NaHEPES, pH 7.4) and passed through a 200 μl Extracti-gel column (Pierce). The flow-through containing the reconstituted protein was used for determination of ATPase activity.
ATPase activity was measured as described previously (Ahn, J., Wong, J. T., and Molday, R. S. (2000) J Biol Chem 275(27), 20399-405) using 50 μM [α^32P]ATP and thin layer chromatography. The all-trans retinal concentration was determined spectrophotometrically (λ383 nm=42.88 mM^−1 cm^−1). Protein concentration was estimated from the eluate before reconstitution by laser densitometry of Coomassie blue stained gels using bovine serum albumin as a standard. […] Direct protein measurements after reconstitution by densitometry of Western blots was about half of that in the eluate. […]
ATPase Activity of Expressed N and C Halves—The basal and retinal activated ATPase activity of full-length ABCR and the N and C halves individually or co-expressed in COS-1 cells was determined after immunoaffinity purification and reconstitution into lipid vesicles. […]

For the compound `CC1=C(/C=C/C(C)=C/C=C/C(C)=C/C=O)C(C)(C)CCC1` [all-trans retinal], the “stimulation of ATPase activity” value was “not stimulated”.

Source of the values: US20060110790A1, “Expression system for large functional proteins” (priority 2002, published 2006).
